Source: PMC10857906, “PROTAC-mediated NR4A1 degradation as a novel strategy for cancer immunotherapy” (The Journal of Experimental Medicine, 2024)

Assays:
NR4A1 [1] = target: T1, NR4A1 (Homo sapiens, UniProt P22736); experiment: NR4A1 degradation in A375 human melanoma cells (immunoblotting); format: cell-based; conditions: 16 h treatment, read-out: 50% degradation concentration (DC50) of NR4A1
T1 construct: NR-V04 effectively promoted the degradation of NR4A1 in two human melanoma cell lines within 16 h; endogenous in cells; host or cells: CHL-1, A375, WM164, M229 human melanoma cells
Description: (§1) Human melanoma cell lines: A375 and CHL-1 (gifts from Dr. D. Zhou, the University of Texas Health Science Center, San Antonio, TX, USA) were cultured in Dulbecco’s Modified Eagles’ Medium (DMEM, D5796; Sigma-Aldrich), WM164 and M229 (gifts from Dr. K.S.M. Smalley’s lab) were cultured in RPMI-1640 (R8758; Sigma-Aldrich). Mouse melanoma cell lines: B16F10 (CRL-6475, ATCC) was cultured in DMEM, SW1 and SM1 (gift from Dr. K.S.M. Smalley, Moffitt Cancer Center, Tampa, FL, USA) were cultured in RPMI. Human epithelial kidney cell lines: HEK293T (293T, CRL-3216; ATCC) and Vhl-KO-293T (gift from Dr. D. Zhou, the University of Texas Health Science Center, San Antonio, TX, USA) were cultured in DMEM. Mouse colon cancer cell lines: MC38 (ENH204-FP; Kerafast Inc.) was cultured in DMEM supplemented with 1 mM glutamine, […] non-essential amino acids (11140050; Thermo Fisher Scientific), 1 mM sodium pyruvate (11360070; Thermo Fisher Scientific), and 10 mM HEPES (15630080; Thermo Fisher Scientific). […]
(§2) Samples were lysed using radioimmunoprecipitation assay buffer (RIPA) lysis buffer (150 mM NaCl, 5 mM EDTA, 50 mM Tris pH 8.0, 0.5% sodium deoxycholate, 1% NP-40, 0.1% SDS) supplemented with 1 mM dithiothreitol and protease inhibitors. The lysates were separated by SDS-PAGE and analyzed using standard western blotting procedures ([Khan et al., 2019]). […]

NR4A1 [2] = target: T1, NR4A1; experiment: NR4A1 degradation in WM164 and M229 human melanoma cells (immunoblotting); format: cell-based; conditions: 16 h
Description: as §1, §2

NR4A3 = target: T2, NR4A3 (Homo sapiens, UniProt Q92570); experiment: NR4A3 protein level after treatment (immunoblotting); format: cell-based
T2 construct: endogenous in cells
Description: Samples were lysed using radioimmunoprecipitation assay buffer (RIPA) lysis buffer (150 mM NaCl, 5 mM EDTA, 50 mM Tris pH 8.0, 0.5% sodium deoxycholate, 1% NP-40, 0.1% SDS) supplemented with 1 mM dithiothreitol and protease inhibitors. The lysates were separated by SDS-PAGE and analyzed using standard western blotting procedures ([Khan et al., 2019]). Antibodies: human NR4A1 (ab153914, 1:1,000; Abcam), mouse NR4A1 (14-5965-82, 1:1,000; Invitrogen), NR4A2 (AV38753, 1:1,000; Sigma-Aldrich), NR4A3 (TA804893, 1: 1,000; Thermo Fisher Scientific), VHL (68547, 1:1,000; Cell Signaling), β-actin (13E5, 1:5,000; Cell Signaling), β-tubulin (9F3, 1: 5,000; Cell Signaling), and GAPDH (D16H11, 1: 5,000; Cell Signaling) were employed for protein detection.

NR4A1 mRNA = NR4A1 mRNA by qPCR in CHL-1 cells; format: cell-based, human; conditions: 500 nM, ACTB as control
Description: Total RNA was extracted from cells using RNeasy Kits (74004; QIAGEN) following the manufacturer’s instructions. cDNA synthesis was performed using SuperScript III Reverse Transcriptase (18080044; Thermo Fisher Scientific) with 100 ng RNA as the template. Amplification of cDNA was carried out using 2× PowerUP SYBR Green Master Mix (A25778; Thermo Fisher Scientific). Each reaction was conducted in triplicates and results were normalized to the expression of a housekeeping gene. Primer (Eurofins): human β-actin (forward sequence: 5′-CACCATTGGCAATGAGCGGTTC-3′; reverse sequence: 5′-AGGTCTTTGCGGATGTCCACGT-3′) and human NR4A1 (forward sequence: 5′-GGACAACGCTTCATGCCAGCAT-3′; reverse sequence: 5′-CCTTGTTAGCCAGGCAGATGTAC-3′).

B16F10 melanoma = B16F10 melanoma syngeneic tumor model; format: in vivo, mouse
Text: (§3) 7–9-wk-old C57BL/6J, B6.129S2-Ighm^tm1Cgn/J (002288), B6.129S2-Nr4a1^tm1Jmi/J (NR4A1^−/−, 006187), and NOD-SCID interleukin-2 receptor gamma null (NSG) mice were purchased from Jackson Laboratories. For all studies involving NR-V04 and celastrol, the compounds were formulated in 50% phosal PG, 45% miglyol 810N, and 5% polysorbate 80 and administered via i.p. injection.
(§4) For syngeneic tumor models, 5 × 10^5 cells MC38, Yumm1.7, and Yummer1.7, 1 × 10^5 cells of B16F10 were resuspended in PBS and implanted into 7–9-wk-old mice subcutaneously. For the tumor inhibition experiment, mice were treated with 1.8 mg/kg NR-V04 or 0.75 mg/kg celastrol by i.p. injection twice weekly. For the immune profile experiment, once tumors reached 0.5 cm in diameter, mice were treated with 1.8 mg/kg NR-V04 by i.p. injection twice weekly. For the toxicity experiment, male and female non-tumor-bearing mice were treated with 2 mg/kg NR-V04 for two doses in the first week and 5 mg/kg for another two doses in the second week. Blood samples were taken from the submandibular (facial) vein before each treatment and 42 days later for hematological analysis, and body weight was measured twice per week up to day 42. Mice were euthanized in accordance with the IACUC protocol once the largest tumors reached 2 cm in diameter, and tissues were collected for further analysis.

Yumm1.7 tumors = experiment: Yumm1.7 melanoma syngeneic tumor model; format: in vivo, mouse; conditions: Yumm1.7 (low immunogenicity), 1.8 mg/kg
Text: as §3, §4

T1 sequence (P22736 whole entry): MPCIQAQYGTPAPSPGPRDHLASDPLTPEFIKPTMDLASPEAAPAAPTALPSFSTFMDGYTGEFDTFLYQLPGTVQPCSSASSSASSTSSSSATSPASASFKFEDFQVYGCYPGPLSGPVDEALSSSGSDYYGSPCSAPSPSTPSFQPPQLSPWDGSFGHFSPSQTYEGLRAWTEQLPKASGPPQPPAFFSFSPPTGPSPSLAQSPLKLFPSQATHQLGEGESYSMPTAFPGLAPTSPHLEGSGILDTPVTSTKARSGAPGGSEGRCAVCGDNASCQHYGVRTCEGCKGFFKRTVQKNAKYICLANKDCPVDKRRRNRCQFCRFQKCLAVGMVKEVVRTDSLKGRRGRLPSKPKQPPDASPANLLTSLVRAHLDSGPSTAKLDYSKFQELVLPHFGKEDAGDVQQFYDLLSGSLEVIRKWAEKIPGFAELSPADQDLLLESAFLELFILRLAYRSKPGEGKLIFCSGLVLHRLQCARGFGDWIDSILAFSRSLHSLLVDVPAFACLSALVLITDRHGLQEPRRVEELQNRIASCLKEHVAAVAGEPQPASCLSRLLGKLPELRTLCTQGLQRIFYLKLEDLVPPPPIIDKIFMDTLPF
T2 sequence (Q92570 whole entry): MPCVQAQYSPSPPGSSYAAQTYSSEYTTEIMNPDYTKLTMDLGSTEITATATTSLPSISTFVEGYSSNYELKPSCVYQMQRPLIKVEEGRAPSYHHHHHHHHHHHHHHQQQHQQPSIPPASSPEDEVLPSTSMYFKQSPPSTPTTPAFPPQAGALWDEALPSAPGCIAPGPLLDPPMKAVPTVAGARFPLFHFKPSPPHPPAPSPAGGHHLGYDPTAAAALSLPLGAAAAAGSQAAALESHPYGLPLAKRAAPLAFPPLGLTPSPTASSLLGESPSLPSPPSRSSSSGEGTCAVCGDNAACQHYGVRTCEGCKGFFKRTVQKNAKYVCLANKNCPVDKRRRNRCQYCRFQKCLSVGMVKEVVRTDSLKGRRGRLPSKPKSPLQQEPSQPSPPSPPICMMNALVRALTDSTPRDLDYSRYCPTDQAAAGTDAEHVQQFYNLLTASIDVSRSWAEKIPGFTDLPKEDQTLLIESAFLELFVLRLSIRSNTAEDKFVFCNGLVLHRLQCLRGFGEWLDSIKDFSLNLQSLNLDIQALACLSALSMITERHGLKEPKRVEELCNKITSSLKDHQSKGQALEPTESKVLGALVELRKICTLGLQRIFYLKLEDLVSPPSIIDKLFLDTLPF

CC1=C(O)C(=O)C=C2C1=CC=C1[C@@]2(C)CC[C@@]2(C)[C@@H]3C[C@](C)(C(=O)NCCOCCOCCOCCOCC(=O)N[C@H](C(=O)N4C[C@H](O)C[C@H]4C(=O)N[C@@H](C)c4ccc(-c5scnc5C)cc4)C(C)(C)C)CC[C@]3(C)CC[C@]12C [NR-V04] was tested, and the DC50 (NR4A1 [1]) was 519 nM, the NR4A1 protein level (NR4A1 [2]; M229 human melanoma cells) was “reduced NR4A1 protein level” and the NR4A1 protein level (NR4A1 [2]; WM164 human melanoma cells) was “reduced NR4A1 protein level”. The “NR4A3 protein level (selectivity in the NR4A family)” value (NR4A3) was “sparing NR4A2 and NR4A3”, the “NR4A1 mRNA level” value (NR4A1 mRNA) was “increased NR4A1 mRNA after 4 h” and the tumor growth (B16F10 melanoma; B16F10 in B6.129S2-Ighm^tm1Cgn/J mice that lack mature B cells) was “unable to inhibit tumor growth”. The tumor growth (B16F10 melanoma; B16F10 in NR4A1^−/− mice, 1.8 mg/kg i.p.) was “failed to inhibit B16F10”, the tumor growth (B16F10 melanoma; B16F10 in NSG mice, 1.8 mg/kg i.p.) was “failed to inhibit tumor growth” and the tumor growth (B16F10 melanoma; B16F10 in WT mice, 1.8 mg/kg NR-V04 or 0.75 mg/kg celastrol i.p. twice a week from day 7) was “effectively inhibited tumor growth”. The tumor growth (Yumm1.7 tumors) was “no tumor inhibitory effect”.
